According to US11230541B2, “Heterocyclic compound” (Takeda Pharmaceutical Company Limited, priority 2017, dated 2022):
Structures can show the parent of a compound that is named as a salt.

Target: T1, NMDA receptor composed of four subunits including 2 sets of heterodimers of NR1 and NR2B (Homo sapiens, UniProt Q13224)
T1 construct: host or cells: HEK293 (tetracycline-induced expression)
Assay: NR2B Ca2+ influx assay (FLIPR, Fluo-4) in HEK293 cells expressing human GRIN1 and GRIN2B
Type: cell-based
Conditions: HEK293, 10 μM final compound concentration, glutamic acid/glycine-induced Ca2+ influx, read-out: inhibitory rate (10 μM compound concentration)
Procedure, shortened: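 Tetracycline-induced (2 h) HEK293 cells expressing human GRIN1/GRIN2B, Fluo-4-loaded, were preincubated 15 min at room temperature with compound at 10 μM final. FLIPR recorded Ca2+ influx every 3 s for 5 min after glutamate/glycine addition (30 μM in added buffer); inhibition from cumulative fluorescence relative to agonist-free wells.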

T1 sequence (Q13224 27-1484, other chains not shown): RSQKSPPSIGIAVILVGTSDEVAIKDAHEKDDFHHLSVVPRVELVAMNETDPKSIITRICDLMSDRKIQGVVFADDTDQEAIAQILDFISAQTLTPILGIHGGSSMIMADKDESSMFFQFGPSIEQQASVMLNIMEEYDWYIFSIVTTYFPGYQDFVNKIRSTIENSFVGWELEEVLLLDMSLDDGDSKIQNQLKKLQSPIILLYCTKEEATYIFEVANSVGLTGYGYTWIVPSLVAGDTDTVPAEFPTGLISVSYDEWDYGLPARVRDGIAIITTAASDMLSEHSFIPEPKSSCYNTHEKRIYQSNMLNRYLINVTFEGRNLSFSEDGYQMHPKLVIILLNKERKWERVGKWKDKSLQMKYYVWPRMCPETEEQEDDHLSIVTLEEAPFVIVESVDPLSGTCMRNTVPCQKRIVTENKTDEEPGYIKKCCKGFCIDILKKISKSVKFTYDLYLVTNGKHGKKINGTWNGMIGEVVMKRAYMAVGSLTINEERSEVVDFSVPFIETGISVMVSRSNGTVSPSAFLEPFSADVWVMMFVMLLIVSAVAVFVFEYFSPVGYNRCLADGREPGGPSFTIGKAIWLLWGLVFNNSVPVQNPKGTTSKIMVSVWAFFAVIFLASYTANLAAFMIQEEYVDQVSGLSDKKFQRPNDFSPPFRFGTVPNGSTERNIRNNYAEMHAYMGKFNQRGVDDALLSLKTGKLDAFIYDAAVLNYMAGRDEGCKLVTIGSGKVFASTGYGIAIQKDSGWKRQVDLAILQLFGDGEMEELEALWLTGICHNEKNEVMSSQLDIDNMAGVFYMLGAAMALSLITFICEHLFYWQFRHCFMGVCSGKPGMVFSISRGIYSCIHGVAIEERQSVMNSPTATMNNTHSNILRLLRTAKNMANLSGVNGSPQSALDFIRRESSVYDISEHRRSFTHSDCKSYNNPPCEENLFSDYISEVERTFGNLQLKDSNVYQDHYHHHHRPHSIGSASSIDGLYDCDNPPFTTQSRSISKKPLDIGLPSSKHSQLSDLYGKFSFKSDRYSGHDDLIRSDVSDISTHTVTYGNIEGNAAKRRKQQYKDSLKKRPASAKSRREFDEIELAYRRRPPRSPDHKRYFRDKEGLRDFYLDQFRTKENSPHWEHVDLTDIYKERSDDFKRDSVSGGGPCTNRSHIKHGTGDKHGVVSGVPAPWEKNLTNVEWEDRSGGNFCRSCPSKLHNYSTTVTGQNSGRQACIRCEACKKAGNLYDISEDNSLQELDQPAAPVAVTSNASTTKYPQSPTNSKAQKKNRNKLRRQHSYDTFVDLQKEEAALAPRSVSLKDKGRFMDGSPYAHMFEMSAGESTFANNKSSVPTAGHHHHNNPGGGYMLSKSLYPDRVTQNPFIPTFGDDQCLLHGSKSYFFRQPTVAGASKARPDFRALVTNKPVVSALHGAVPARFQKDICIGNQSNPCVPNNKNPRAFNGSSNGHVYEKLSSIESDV

Row | SMILES | inhibition at 10 µM
1 | Cc1ccc2ncn(C)c2c1CNC(=O)c1csc(C2CC2)c1 [Example 144, 5-cyclopropyl-N-((1,6-dimethyl-1H-benzimidazol-7-yl)methyl)thiophene-3-carboxamide] | 90%
2 | Cc1ccc2ncn(C)c2c1CNC(=O)c1ccc(OC(F)(F)F)cc1 [Example 152, N-((1,6-dimethyl-1H-benzimidazol-7-yl)methyl)-4-(trifluoromethoxy)benzamide] | 91%
3 | O=C(NCc1c(C2CC2)ccc2[nH]ncc12)c1cc(F)c(OC(F)F)c(F)c1 [Example 153, N-((5-cyclopropyl-1H-indazol-4-yl)methyl)-4-(difluoromethoxy)-3,5-difluorobenzamide] | 90%
4 | O=C(NCc1c(C2CC2)ccc2[nH]ncc12)c1csc(C(F)F)c1 [Example 154, N-((5-cyclopropyl-1H-indazol-4-yl)methyl)-5-(difluoromethyl)-thiophene-3-carboxamide] | 91%
5 | O=C(NCc1c(C2CC2)ccc2[nH]ncc12)c1ccc(C(F)F)s1 [Example 155, N-((5-cyclopropyl-1H-indazol-4-yl)methyl)-5-(difluoromethyl)-thiophene-2-carboxamide] | 92%
6 | COc1ccc2ncn(C)c2c1CNC(=O)c1ccc(C(F)(F)F)s1 [Example 162, N-((6-methoxy-1-methyl-1H-benzimidazol-7-yl)methyl)-5-(trifluoromethyl)-thiophene-2-carboxamide hydrochloride] | 92%
7 | COc1ncc(C(=O)NCc2c(C3CC3)ccc3[nH]nnc23)cc1F [Example 165, N-((5-cyclopropyl-1H-benzotriazol-4-yl)methyl)-5-fluoro-6-methoxynicotinamide] | 91%
8 | O=C(NCc1cccc2[nH]ncc12)c1csc(Cl)c1 [Example 166, 5-chloro-N-(1H-indazol-4-ylmethyl)thiophene-3-carboxamide] | 56%
9 | O=C(NCc1cccc2[nH]ncc12)c1ccc(C(F)(F)F)s1 [Example 167, N-(1H-indazol-4-ylmethyl)-5-(trifluoromethyl)-thiophene-2-carboxamide] | 58%
10 | O=C(NCc1cccc2[nH]ncc12)c1cc(Cl)c(Cl)s1 [Example 168, 4,5-dichloro-N-(1H-indazol-4-ylmethyl)thiophene-2-carboxamide] | 90%
11 | COc1ncc(C(=O)NCc2cccc3[nH]ncc23)cc1Cl [Example 169, 5-chloro-N-(1H-indazol-4-ylmethyl)-6-methoxynicotinamide] | 70%
12 | O=C(NCc1cccc2[nH]ncc12)c1ccc(OC(F)(F)F)nc1 [Example 170, N-(1H-indazol-4-ylmethyl)-6-(trifluoromethoxy)-nicotinamide] | 76%
13 | CCOc1ncc(C(=O)NCc2cccc3[nH]ncc23)cc1F [Example 171, 6-ethoxy-5-fluoro-N-(1H-indazol-4-ylmethyl)nicotinamide] | 85%
14 | COc1ncc(C(=O)NCc2cccc3[nH]ncc23)cc1F [Example 172, 5-fluoro-N-(1H-indazol-4-ylmethyl)-6-methoxynicotinamide] | 60%
15 | O=C(NCc1cccc2[nH]ncc12)c1cc(F)c(C(F)(F)F)c(F)c1 [Example 173, 3,5-difluoro-N-(1H-indazol-4-ylmethyl)-4-(trifluoromethyl)-benzamide] | 80%
16 | O=C(NCc1cccc2[nH]ncc12)c1ccc(C(F)(F)F)c(F)c1 [Example 174, 3-fluoro-N-(1H-indazol-4-ylmethyl)-4-(trifluoromethyl)-benzamide] | 80%
17 | O=C(NCc1cccc2[nH]ncc12)c1ccc(C(F)(F)F)cc1 [Example 175, N-(1H-indazol-4-ylmethyl)-4-(trifluoromethyl)-benzamide] | 82%
18 | Cc1ccc(C(=O)NCc2cccc3[nH]ncc23)cc1F [Example 176, 3-fluoro-N-(1H-indazol-4-ylmethyl)-4-methylbenzamide] | 51%
19 | O=C(NCc1cccc2[nH]ncc12)c1ccc(C(F)F)cc1 [Example 177, 4-(difluoromethyl)-N-(1H-indazol-4-ylmethyl)benzamide] | 52%
20 | O=C(NCc1cccc2[nH]ncc12)c1ccc(C(F)F)c(F)c1 [Example 178, 4-(difluoromethyl)-3-fluoro-N-(1H-indazol-4-ylmethyl)benzamide] | 70%
21 | O=C(NCc1cccc2[nH]ncc12)c1ccc(OC(F)(F)F)c(F)c1 [Example 179, 3-fluoro-N-(1H-indazol-4-ylmethyl)-4-(trifluoromethoxy)-benzamide] | 96%
22 | COc1c(F)cc(C(=O)NCc2cccc3[nH]ncc23)cc1F [Example 180, 3,5-difluoro-N-(1H-indazol-4-ylmethyl)-4-methoxybenzamide] | 89%
23 | COc1ccc(C(=O)NCc2cccc3[nH]ncc23)cc1F [Example 181, 3-fluoro-N-(1H-indazol-4-ylmethyl)-4-methoxybenzamide] | 67%
24 | O=C(NCc1cccc2[nH]ncc12)c1ccc(OC(F)F)c(Cl)c1 [Example 182, 3-chloro-4-(difluoromethoxy)-N-(1H-indazol-4-ylmethyl)benzamide] | 97%
25 | O=C(NCc1cccc2[nH]ncc12)c1ccc(OC(F)F)cc1 [Example 183, 4-(difluoromethoxy)-N-(1H-indazol-4-ylmethyl)benzamide] | 87%
26 | O=C(NCc1cccc2[nH]ncc12)c1cc(F)c(OC(F)F)c(F)c1 [Example 184, 4-(difluoromethoxy)-3,5-difluoro-N-(1H-indazol-4-ylmethyl)benzamide] | 93%
27 | Cc1ccc(C(=O)NCc2cccc3[nH]ncc23)cc1Cl [Example 185, 3-chloro-N-(1H-indazol-4-ylmethyl)-4-methylbenzamide] | 74%
28 | O=C(NCc1cccc2[nH]ncc12)c1ccc(F)c(Cl)c1 [Example 186, 3-chloro-4-fluoro-N-(1H-indazol-4-ylmethyl)benzamide] | 56%

The next lines start with the values.

Row | inhibition at 10 µM | SMILES
29 | 91% | CCc1ccc2ncn(C)c2c1CNC(=O)c1cnc(OC(F)F)c(F)c1 [Example 143, 6-(difluoromethoxy)-N-((6-ethyl-1-methyl-1H-benzimidazol-7-yl)methyl)-5-fluoronicotinamide]
30 | 92% | CCc1ccc2ncn(C)c2c1CNC(=O)c1ccc(OC)cc1 [Example 145, N-((6-ethyl-1-methyl-1H-benzimidazol-7-yl)methyl)-4-methoxybenzamide]
31 | 90% | CCc1ccc2ncn(C)c2c1CNC(=O)c1ccc(C(F)F)c(F)c1 [Example 146, 4-(difluoromethyl)-N-((6-ethyl-1-methyl-1H-benzimidazol-7-yl)methyl)-3-fluorobenzamide]
32 | 92% | CCc1ccc2ncn(C)c2c1CNC(=O)c1csc(Cl)c1 [Example 147, 5-chloro-N-((6-ethyl-1-methyl-1H-benzimidazol-7-yl)methyl)thiophene-3-carboxamide]
33 | 91% | CCc1ccc2ncn(C)c2c1CNC(=O)c1ccc(OC(F)F)cc1 [Example 148, 4-(difluoromethoxy)-N-((6-ethyl-1-methyl-1H-benzimidazol-7-yl)methyl)benzamide]
34 | 93% | CCc1ccc2ncn(C)c2c1CNC(=O)c1ccc(OC(F)(F)F)nc1 [Example 149, N-((6-ethyl-1-methyl-1H-benzimidazol-7-yl)methyl)-6-(trifluoromethoxy)-nicotinamide]
35 | 60% | CCn1cnc2ccc(OC)c(CNC(=O)c3cnc(OC)c(F)c3)c21 [Example 150, N-((1-ethyl-6-methoxy-1H-benzimidazol-7-yl)methyl)-5-fluoro-6-methoxynicotinamide]
36 | 83% | CCn1cnc2ccc(OC)c(CNC(=O)c3cc(F)c(OC)c(F)c3)c21 [Example 151, N-((1-ethyl-6-methoxy-1H-benzimidazol-7-yl)methyl)-3,5-difluoro-4-methoxybenzamide]
37 | 76% | Cc1ccc2ncn(C)c2c1CNC(=O)c1csc(Cl)c1 [Example 156, 5-chloro-N-((1,6-dimethyl-1H-benzimidazol-7-yl)methyl)thiophene-3-carboxamide]
38 | 85% | Cc1ccc2ncn(C)c2c1CNC(=O)c1ccc(C(F)F)cc1 [Example 157, 4-(difluoromethyl)-N-((1,6-dimethyl-1H-benzimidazol-7-yl)methyl)benzamide]
39 | 89% | Cc1ccc2ncn(C)c2c1CNC(=O)c1cc(F)c(OC(F)F)c(F)c1 [Example 158, 4-(difluoromethoxy)-N-((1,6-dimethyl-1H-benzimidazol-7-yl)methyl)-3,5-difluorobenzamide]
40 | 86% | Cc1ccc2ncn(C)c2c1CNC(=O)c1ccc(OC(F)F)nc1 [Example 159, 6-(difluoromethoxy)-N-((1,6-dimethyl-1H-benzimidazol-7-yl)methyl)nicotinamide]
41 | 65% | COc1c(F)cc(C(=O)NCc2cccc3ncn(C)c23)cc1F [Example 160, 3,5-difluoro-4-methoxy-N-((1-methyl-1H-benzimidazol-7-yl)methyl)benzamide]
42 | 92% | COc1ccc2ncn(C)c2c1CNC(=O)c1cc(F)c(OC(F)F)c(F)c1 [Example 161, 4-(difluoromethoxy)-3,5-difluoro-N-((6-methoxy-1-methyl-1H-benzimidazol-7-yl)methyl)benzamide]
43 | 89% | Cc1ccc2ncn(C)c2c1CNC(=O)c1csc(C(F)(F)F)c1 [Example 163, N-((1,6-dimethyl-1H-benzimidazol-7-yl)methyl)-5-(trifluoromethyl)-thiophene-3-carboxamide]
44 | 92% | CCc1ccc2ncn(C)c2c1CNC(=O)c1ccc(OC(F)F)nc1 [Example 164, 6-(difluoromethoxy)-N-((6-ethyl-1-methyl-1H-benzimidazol-7-yl)methyl)nicotinamide]
